Key:
CYP1A2 = molecular target: T1, CYP1A2 (Homo sapiens, UniProt P05177); experiment: Biochemical assay for CYP enzyme inhibition, P450-Glo CYP1A2 Screening System; format: in vitro ADME; details: estimated from percentage inhibition; read-out: IC50 (μM) CYP1A2
T1 construct: purchased Promega
T1 sequence (P05177 1-516): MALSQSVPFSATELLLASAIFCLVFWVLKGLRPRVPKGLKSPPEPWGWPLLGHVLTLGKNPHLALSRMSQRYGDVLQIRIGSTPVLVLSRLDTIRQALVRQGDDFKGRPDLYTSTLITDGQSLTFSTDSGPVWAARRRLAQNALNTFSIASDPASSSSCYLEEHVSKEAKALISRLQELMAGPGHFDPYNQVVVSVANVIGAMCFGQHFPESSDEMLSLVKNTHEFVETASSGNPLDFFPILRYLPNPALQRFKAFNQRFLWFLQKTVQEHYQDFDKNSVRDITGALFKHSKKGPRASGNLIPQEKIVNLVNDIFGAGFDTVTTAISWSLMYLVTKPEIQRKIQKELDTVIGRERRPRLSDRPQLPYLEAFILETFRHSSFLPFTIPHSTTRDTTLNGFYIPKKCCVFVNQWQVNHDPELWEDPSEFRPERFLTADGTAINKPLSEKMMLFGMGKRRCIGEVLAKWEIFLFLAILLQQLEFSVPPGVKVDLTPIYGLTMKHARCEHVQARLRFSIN
Experimental: (§1) Test Example 5: Biochemical Assay for CYP Enzyme (Cytochrome P450) Inhibition
P450-Glo™ CYP1A2 Screening System, (Promega);
(§2) BMG PHERAstar FS Luminescent.
(§3) The experiments were carried out separately according to the instructions of the kits. The steps were as follows:
3.1. Inhibition Against CYP1A2:
(§4) Test group: The test compounds at different concentrations were added into a microplate, and Luciferin-ME (100 μM), K3PO4 (100 mM), and CYP1A2 (0.01 μmol/μL) were added into each well, and pre-incubated at room temperature for 10 min. Thereafter, an NADPH regeneration system was added. The mixture was reacted at room temperature for 30 min. Finally, an equal volume of detection buffer was added and incubated at room temperature for 20 min, followed by chemiluminescence detection.
(§5) Negative control group: The experimental method for the negative control group was the same as that for the test group, except that the test compound was not added.
Blank control group: The experimental method for the blank control group was the same as that for the test group, except that the test compound was not added and that CYP1A2 was replaced with CYP1A2 Membrance (0.01 μmol/μL).
(§6) Percentage inhibition=(1−(the chemiluminescent signal value of the test compound group at a certain test concentration−the chemiluminescent signal value of the blank control group)/(the chemiluminescent signal value of the negative control group−the chemiluminescent signal value of the blank control group))×100%.
(§7) When the percentage inhibition was between 30% and 80%, a single value or a value range of the half maximal inhibitory concentration (IC50) of the compound against the CYP enzyme was estimated based on the following equation: IC50=X×(1−percentage inhibition)/percentage inhibition, wherein X was the test concentration of the compound.

CYP2D6 = molecular target: T2, CYP2D6 (Homo sapiens, UniProt P10635); experiment: Biochemical assay for CYP enzyme inhibition, P450-Glo CYP2D6 Screening System; format: in vitro ADME; details: estimated from percentage inhibition; read-out: IC50 (μM) CYP2D6
T2 construct: purchased Promega
Experimental: as §1
P450-Glo™ CYP2D6 Screening System, (Promega);
as §2, §3
3.2. Inhibition Against CYP2D6:
as §4, with “and Luciferin-ME EGE (3 μM), K3PO4” for “and Luciferin-ME (100 μM), K3PO4”, “mM), and CYP2D6 (5 nM) were added” for “mM), and CYP1A2 (0.01 μmol/μL) were added”, “reacted at 37° C. for 30” for “reacted at room temperature for 30”
as §5
Blank control group: The experimental method for the blank control group was the same as that for the test group, except that the test compound was not added and that CYP2D6 was replaced with CYP2D6 Membrance (5 nM).
as §6, §7

CYP3A4 = molecular target: T3, CYP3A4 (Homo sapiens, UniProt P08684); experiment: Biochemical assay for CYP enzyme inhibition, P450-Glo CYP3A4 Screening System; format: in vitro ADME; details: estimated from percentage inhibition; read-out: IC50 (μM) CYP3A4
T3 construct: purchased Promega
Experimental: as §1
P450-Glo™ CYP3A4 Screening System, (Promega).
as §2, §3
3.3. Inhibition Against CYP3A4:
as §4, with “Luciferin-IPA ([…]),” for “Luciferin-ME (100 μM),”, “CYP3A4 (2 nM)” for “CYP1A2 (0.01 μmol/μL)”
as §5
Blank control group: The experimental method for the blank control group was the same as that for the test group, except that the test compound was not added and that CYP3A4 was replaced with CYP3A4 Membrance (2 nM).
as §6, §7

[1] = Pharmacokinetic (PK) studies in Balb/c mouse; format: in vivo; details: female, Balb/c, mouse, in vivo
Experimental: Test Example 7: Pharmacokinetic (PK) Studies in Balb/c Mouse
The compound of Example 12, Control Compound 1, Control Compound 2, and TNO-155 were administered to female Balb/c mice by intravenous injection (IV) and gavage (PO) respectively to estimate the pharmacokinetic properties. Dosing amounts for IV and PO routes were 1 mg/kg and 10 mg/kg, respectively. The solvent for IV route was 5% DMSO+5% Solutol+90% Saline, and the solvent for PO route was 0.5% MC (sodium methylcellulose). Blood was collected at various time points after IV and PO administration. The blood from the test groups of the compound of Example 12, Control Compound 1, and Control Compound 2 was anticoagulated using EDTA.K2 and preserved at −80° C. The blood from the test groups of TNO-155 was anticoagulated using EDTA.K2 and centrifuged to obtain plasma samples, and the plasma samples were preserved at −80° C.
The blood or plasma samples were subjected to protein precipitation and then to the LC-MS/MS analysis. WinNonlin 6.3 software was used to calculate the pharmacokinetic parameters by non-compartmental model, and the results were listed in Table 7 below.

[2] = Pharmacokinetic (PK) studies in beagle dog; format: in vivo; details: dog, male beagle dogs, plasma
Experimental: Test Example 8: Pharmacokinetic (PK) Studies in Beagle Dog
(§8) The compound of Example 12, Control Compound 1, Control Compound 2, and TNO-155 were administered to male beagle dogs by intravenous injection (IV) and gavage (PO) respectively to estimate the pharmacokinetic properties. Dosing amounts for IV and PO routes were 0.5 mg/kg and 2.5 mg/kg. The solvent for IV route was 5% DMSO+5% Solutol+90% Saline, and the solvent for PO route was 0.5% MC (sodium methylcellulose). Blood was collected at various time points after IV and PO administration. The blood was anticoagulated using EDTA.K2, and centrifuged to obtain plasma samples. The plasma samples were preserved at −80° C.
The plasma samples were subjected to protein precipitation and then to the LC-MS/MS analysis. WinNonlin 6.3 software was used to calculate the pharmacokinetic parameters by non-compartmental model, and the results were listed in Table 8 below.

[3] = Pharmacokinetic (PK) studies in SD rat; format: in vivo; details: rat, male SD rats, plasma
Experimental: Test Example 6: Pharmacokinetic (PK) Studies in SD Rat
as §8, with “Example 12 and” for “Example 12,”, “Compound 2” for “Compound 1, Control Compound 2, and TNO-155”, “male SD rats” for “male beagle dogs”, “were 1” for “were 0.5”, “and 5 mg/kg, respectively.” for “and 2.5 mg/kg.”, “DMSO+5% Solutol (polyoxyl 15-hydroxystearate)+90% Saline (physiological saline),” for “DMSO+5% Solutol+90% Saline,”
The plasma samples were subjected to protein precipitation and then to the LC-MS/MS analysis. WinNonlin 6.3 software was used to calculate the pharmacokinetic parameters by non-compartmental model, and the results were listed in Table 6 below.

T3 sequence (P08684 whole entry): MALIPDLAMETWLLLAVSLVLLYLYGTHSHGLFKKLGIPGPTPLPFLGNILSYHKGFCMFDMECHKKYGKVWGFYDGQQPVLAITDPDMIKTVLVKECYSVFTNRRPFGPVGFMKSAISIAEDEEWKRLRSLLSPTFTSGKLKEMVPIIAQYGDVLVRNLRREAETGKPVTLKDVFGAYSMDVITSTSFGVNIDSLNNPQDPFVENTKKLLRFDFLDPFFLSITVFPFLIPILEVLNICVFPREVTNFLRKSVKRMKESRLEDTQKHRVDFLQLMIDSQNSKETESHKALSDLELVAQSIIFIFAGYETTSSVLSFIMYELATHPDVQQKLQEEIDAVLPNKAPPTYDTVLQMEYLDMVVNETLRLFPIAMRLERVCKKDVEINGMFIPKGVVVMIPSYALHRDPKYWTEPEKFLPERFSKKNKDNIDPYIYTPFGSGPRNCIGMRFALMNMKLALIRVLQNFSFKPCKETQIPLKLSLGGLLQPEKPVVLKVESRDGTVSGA
T2 sequence (P10635 whole entry): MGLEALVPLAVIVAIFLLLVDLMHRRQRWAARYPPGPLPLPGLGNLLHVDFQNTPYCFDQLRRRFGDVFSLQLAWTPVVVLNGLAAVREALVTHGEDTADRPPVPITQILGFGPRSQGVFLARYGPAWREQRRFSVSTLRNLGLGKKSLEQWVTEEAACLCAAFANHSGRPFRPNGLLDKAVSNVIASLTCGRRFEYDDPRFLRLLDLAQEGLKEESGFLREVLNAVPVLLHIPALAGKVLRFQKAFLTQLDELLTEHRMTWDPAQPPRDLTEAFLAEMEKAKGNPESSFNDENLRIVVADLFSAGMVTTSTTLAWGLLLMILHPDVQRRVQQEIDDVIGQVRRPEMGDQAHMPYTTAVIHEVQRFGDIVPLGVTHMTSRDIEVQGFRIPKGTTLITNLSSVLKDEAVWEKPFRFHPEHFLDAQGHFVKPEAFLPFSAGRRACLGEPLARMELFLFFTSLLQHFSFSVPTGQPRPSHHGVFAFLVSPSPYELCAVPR

Row | IC50 (CYP1A2) [µM] | IC50 (CYP2D6) [µM] | IC50 (CYP3A4) [µM] | AUC(0-t) ([1]; iv, 1 mg/kg) [ng·h/mL] | clearance ([1]; iv, 1 mg/kg) [mL/min/kg] | AUC(0-t) ([1]; po, 10 mg/kg) [ng·h/mL] | half-life ([1]; po, 10 mg/kg) [h] | AUC(0-t) ([2]; IV, 0.5 mg/kg) [ng·h/mL] | clearance ([2]; IV, 0.5 mg/kg) [mL/min/kg] | AUC(0-t) ([2]; PO, 2.5 mg/kg) [ng·h/mL] | half-life ([2]; PO, 2.5 mg/kg) [h] | AUC(0-t) ([3]; IV, 1 mg/kg) [ng·h/mL] | Cmax ([3]; IV, 1 mg/kg) [ng/mL] | clearance ([3]; IV, 1 mg/kg) [mL/min/kg] | AUC(0-t) ([3]; PO, 5 mg/kg) [ng·h/mL] | Cmax ([3]; PO, 5 mg/kg) [ng/mL] | SMILES
1 | > 10 | 6.96 | > 10 | 2200 | 7.21 | 8690 | 4.61 | 1220 | 7.08 | 3910 | 10.5 |  |  |  |  |  | C[C@@H]1OCC2(CCN(c3ncc(Sc4ccnc(N5CC(O)C5)c4Cl)nc3CO)CC2)[C@@H]1N [Control Compound 1]
2 |  |  |  | 576 | 23.2 | 3870 | 5.08 | 614 | 13.2 | 2550 | 12.3 | 696 | 215 | 24.6 | 2760 | 363 | Cc1nc(N2CCC3(CC2)CO[C@@H](C)[C@H]3N)c(CO)nc1Sc1ccnc(N)c1Cl [Control Compound 2]

From US20230212180A1, “SUBSTITUTED PYRAZINE COMPOUND, PHARMACEUTICAL COMPOSITION COMPRISING SAME, AND USE THEREOF” (Sichuan Kelun-Biotech Biopharmaceutical Co., Ltd., priority 2020, published 2023)
